pIC50: −log10 of the molar value.
Key:
K562 = experiment: cells; conditions: Homo sapiens
[1] = molecular target: Serine/threonine-protein kinase PLK1 (Homo sapiens, UniProt P53350); experiment: Inhibition of human PLK1 using ATF2 as substrate incubated for 40 mins in presence of [gamma-33P]ATP/Mg acetate by scintillation counting analysis
NCI-H460 = experiment: cells; conditions: Homo sapiens
[2] = molecular target: Serine/threonine-protein kinase PLK2 (Homo sapiens, UniProt Q9NYY3); experiment: Inhibition of human PLK2 using ATF2 as substrate incubated for 40 mins in presence of [gamma-33P]ATP/Mg acetate by scintillation counting analysis
Sequence of Serine/threonine-protein kinase PLK2 (Q9NYY3 whole entry): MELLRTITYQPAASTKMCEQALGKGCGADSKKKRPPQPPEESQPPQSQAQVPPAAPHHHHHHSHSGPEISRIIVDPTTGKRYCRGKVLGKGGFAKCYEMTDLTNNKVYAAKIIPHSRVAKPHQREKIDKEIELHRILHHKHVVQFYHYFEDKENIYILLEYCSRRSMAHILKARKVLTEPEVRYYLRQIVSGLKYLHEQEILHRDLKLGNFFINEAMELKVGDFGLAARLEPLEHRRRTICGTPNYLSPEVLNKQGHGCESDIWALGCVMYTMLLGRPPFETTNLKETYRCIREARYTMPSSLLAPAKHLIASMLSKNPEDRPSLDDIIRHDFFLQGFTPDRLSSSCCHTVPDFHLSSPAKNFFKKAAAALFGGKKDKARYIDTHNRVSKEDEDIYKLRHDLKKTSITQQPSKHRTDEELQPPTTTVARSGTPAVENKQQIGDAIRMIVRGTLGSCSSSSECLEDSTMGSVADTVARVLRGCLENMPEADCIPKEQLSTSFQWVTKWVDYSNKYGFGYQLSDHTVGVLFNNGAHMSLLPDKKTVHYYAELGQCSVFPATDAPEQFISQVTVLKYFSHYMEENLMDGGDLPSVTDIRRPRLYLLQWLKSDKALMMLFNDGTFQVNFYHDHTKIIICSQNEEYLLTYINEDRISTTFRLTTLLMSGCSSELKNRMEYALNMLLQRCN

[3] = Selectivity ratio of IC50 for inhibition of human PLK2 using ATF2 as substrate to IC50 for inhibition of human PLK1 using ATF2 as substrate
SW-620 = experiment: cells; conditions: Homo sapiens
A549 = experiment: cells; conditions: Homo sapiens
[4] = Selectivity ratio of IC50 for inhibition of human PLK3 using ATF2 as substrate to IC50 for inhibition of human PLK1 using ATF2 as substrate
HL-60 = experiment: cells; conditions: Homo sapiens
CCRF-CEM = experiment: cells; conditions: Homo sapiens
KG-1 = experiment: cells; conditions: Homo sapiens
[5] = molecular target: Serine/threonine-protein kinase PLK3 (Homo sapiens, UniProt Q9H4B4); experiment: Inhibition of human PLK3 using ATF2 as substrate incubated for 40 mins in presence of [gamma-33P]ATP/Mg acetate by scintillation counting analysis
Sequence of Serine/threonine-protein kinase PLK3 (Q9H4B4 whole entry): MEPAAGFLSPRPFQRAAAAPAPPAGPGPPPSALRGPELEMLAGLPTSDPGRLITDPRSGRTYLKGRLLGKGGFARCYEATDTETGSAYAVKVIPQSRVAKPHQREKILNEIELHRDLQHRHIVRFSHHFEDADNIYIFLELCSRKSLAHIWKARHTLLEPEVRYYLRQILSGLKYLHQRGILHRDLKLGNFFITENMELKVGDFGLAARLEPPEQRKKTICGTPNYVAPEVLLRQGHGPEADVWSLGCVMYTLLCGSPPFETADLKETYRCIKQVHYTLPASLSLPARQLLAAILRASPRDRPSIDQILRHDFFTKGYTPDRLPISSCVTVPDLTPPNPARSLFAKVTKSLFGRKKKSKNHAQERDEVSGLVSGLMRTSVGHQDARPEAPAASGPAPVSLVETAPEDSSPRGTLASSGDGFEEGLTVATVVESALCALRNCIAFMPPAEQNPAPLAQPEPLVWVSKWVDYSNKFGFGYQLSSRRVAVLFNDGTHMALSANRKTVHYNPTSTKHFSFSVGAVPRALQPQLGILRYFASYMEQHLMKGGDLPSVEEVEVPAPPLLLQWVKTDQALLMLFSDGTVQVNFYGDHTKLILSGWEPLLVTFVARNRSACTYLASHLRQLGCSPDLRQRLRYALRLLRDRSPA

PC-9 = experiment: cells; conditions: Homo sapiens
[6] = AUC (0 to t) in C57BL/6 mouse at 10 mg/kg, po measured for 0.5 to […] htr by LC-MS/MS analysis; format: ADME, organism-based; conditions: in vivo, time 0.5-12 hrs
[7] = MRT (0 to t) in C57BL/6 mouse at 1 mg/kg, iv measured for 0.5 to 12 htr by LC-MS/MS analysis; format: ADME, organism-based; conditions: in vivo, time 0.5-12 hrs
[8] = Tmax in C57BL/6 mouse at 1 mg/kg, iv measured for 0.5 to 12 htr by LC-MS/MS analysis; format: ADME, organism-based; conditions: in vivo, time 0.5-12 hrs
[9] = AUC (0 to infinity) in C57BL/6 mouse at 1 mg/kg, iv measured for 0.5 to 12 htr by LC-MS/MS analysis; format: ADME, organism-based; conditions: in vivo, time 0.5-12 hrs
[10] = Metabolic stability in dog liver microsomes assessed as intrinsic clearance preincubated for 5 mins followed by NADPH addition by LC-MS/MS analysis; format: ADME, Canis lupus familiaris, Microsome; conditions: read-out: CLH
[11] = Half life in C57BL/6 mouse at 1 mg/kg, iv measured for 0.5 to 12 htr by LC-MS/MS analysis; format: ADME, organism-based; conditions: in vivo, time 0.5-12 hrs
[12] = Metabolic stability in mouse liver microsomes assessed as intrinsic clearance in microsome measured per mg protein preincubated for 5 mins followed by NADPH addition by LC-MS/MS analysis; format: ADME; conditions: read-out: CLH
[13] = Oral bioavailability in C57BL/6 mouse at 10 mg/kg measured for 0.5 to […] htr by LC-MS/MS analysis; format: ADME, organism-based; conditions: in vivo, time 0.5-12 hrs
[14] = Cmax in C57BL/6 mouse at 1 mg/kg, iv measured for 0.5 to […] htr by LC-MS/MS analysis; format: ADME, organism-based; conditions: in vivo, time 0.5-12 hrs
[15] = Metabolic stability in human liver microsomes assessed as intrinsic clearance preincubated for 5 mins followed by NADPH addition by LC-MS/MS analysis; format: ADME, Microsome; conditions: read-out: CLH
[16] = Metabolic stability in dog liver microsomes assessed as intrinsic clearance in microsome measured per mg protein preincubated for 5 mins followed by NADPH addition by LC-MS/MS analysis; format: ADME, Canis lupus familiaris; conditions: read-out: CLH
[17] = Metabolic stability in mouse liver microsomes assessed as intrinsic clearance preincubated for 5 mins followed by NADPH addition by LC-MS/MS analysis; format: ADME, Microsome; conditions: read-out: CLH
[18] = Metabolic stability in human liver microsomes assessed as intrinsic clearance in microsome measured per mg protein preincubated for 5 mins followed by NADPH addition by LC-MS/MS analysis; format: ADME; conditions: read-out: CLH
[19] = AUC (0 to t) in C57BL/6 mouse at 1 mg/kg, iv measured for 0.5 to […] htr by LC-MS/MS analysis; format: ADME, organism-based; conditions: in vivo, time 0.5-12 hrs
[20] = Cmax in C57BL/6 mouse at 10 mg/kg, po measured for 0.5 to […] htr by LC-MS/MS analysis; format: ADME, organism-based; conditions: in vivo, time 0.5-12 hrs
[21] = MRT (0 to t) in C57BL/6 mouse at 10 mg/kg, po measured for 0.5 to 12 htr by LC-MS/MS analysis; format: ADME, organism-based; conditions: in vivo, time 0.5-12 hrs
[22] = Volume of distribution at steady state in C57BL/6 mouse at 1 mg/kg, iv measured for 0.5 to 12 htr by LC-MS/MS analysis; format: ADME, organism-based; conditions: in vivo, time 0.5-12 hrs, read-out: Vdss
[23] = Metabolic stability in mouse liver microsomes assessed as half life preincubated for 5 mins followed by NADPH addition by LC-MS/MS analysis; format: ADME, Microsome
[24] = Metabolic stability in human liver microsomes assessed as half life preincubated for 5 mins followed by NADPH addition by LC-MS/MS analysis; format: ADME, Microsome
[25] = Clearance in C57BL/6 mouse at 1 mg/kg, iv measured for 0.5 to […] htr by LC-MS/MS analysis; format: ADME, organism-based; conditions: in vivo, time 0.5-12 hrs
[26] = Metabolic stability in dog liver microsomes assessed as half life preincubated for 5 mins followed by NADPH addition by LC-MS/MS analysis; format: ADME, Canis lupus familiaris, Microsome
[27] = AUC (0 to infinity) in C57BL/6 mouse at 10 mg/kg, po measured for 0.5 to 12 htr by LC-MS/MS analysis; format: ADME, organism-based; conditions: in vivo, time 0.5-12 hrs
[28] = Tmax in C57BL/6 mouse at 10 mg/kg, po measured for 0.5 to 12 htr by LC-MS/MS analysis; format: ADME, organism-based; conditions: in vivo, time 0.5-12 hrs
[29] = Half life in C57BL/6 mouse at 10 mg/kg, po measured for 0.5 to 12 htr by LC-MS/MS analysis; format: ADME, organism-based; conditions: in vivo, time 0.5-12 hrs
[30] = C0 in C57BL/6 mouse at 1 mg/kg, iv measured for 0.5 to 12 htr by LC-MS/MS analysis; format: ADME, organism-based; conditions: in vivo, time 0.5-12 hrs

Sequence of Serine/threonine-protein kinase PLK1 (P53350 whole entry): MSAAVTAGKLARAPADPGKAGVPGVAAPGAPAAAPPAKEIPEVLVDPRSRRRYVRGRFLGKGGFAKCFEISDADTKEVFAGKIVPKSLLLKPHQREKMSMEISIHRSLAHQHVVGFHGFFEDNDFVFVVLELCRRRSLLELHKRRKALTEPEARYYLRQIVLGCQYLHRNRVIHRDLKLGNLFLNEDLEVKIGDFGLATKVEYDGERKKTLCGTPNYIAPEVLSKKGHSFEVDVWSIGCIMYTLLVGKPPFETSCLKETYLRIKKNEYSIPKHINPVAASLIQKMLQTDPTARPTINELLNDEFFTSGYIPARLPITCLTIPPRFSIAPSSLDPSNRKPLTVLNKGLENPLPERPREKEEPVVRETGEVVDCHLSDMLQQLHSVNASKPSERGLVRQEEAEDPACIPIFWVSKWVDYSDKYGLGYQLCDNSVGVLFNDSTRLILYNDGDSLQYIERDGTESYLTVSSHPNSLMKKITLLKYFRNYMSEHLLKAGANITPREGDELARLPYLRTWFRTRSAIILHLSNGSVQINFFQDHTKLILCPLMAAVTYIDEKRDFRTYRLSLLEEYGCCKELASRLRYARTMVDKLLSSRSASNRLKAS

CC[C@@H]1C(=O)N(C)c2cnc(Nc3cc(N4CCN(C)CC4)cc(F)c3OCCCO)nc2N1C(C)C
pIC50 (K562): 8.11
pIC50 [1]: 7.80
pIC50 (NCI-H460): 7.02
pIC50 [2]: < 5.00
ratio [3]: > 625
pIC50 (SW-620): 7.08
pIC50 (A549): 6.31
ratio [4]: 586
pIC50 (HL-60): 7.11
pIC50 (CCRF-CEM): 6.95
pIC50 (KG-1): 6.47
pIC50 [5]: 5.03
pIC50 (PC-9): 6.60

CC[C@@H]1C(=O)N(C)c2cnc(Nc3cc(N4CCN(C)CC4)cc(F)c3OC[C@H](C)O)nc2N1C1CCCC1
pIC50 (K562): 8.11
pIC50 [1]: 7.82
pIC50 (NCI-H460): 6.49
pIC50 [2]: < 5.00
ratio [3]: > 658
pIC50 (SW-620): 7.74
pIC50 (A549): 5.81
ratio [4]: 373
pIC50 (HL-60): 7.27
pIC50 (CCRF-CEM): 7.20
pIC50 (KG-1): 6.23
pIC50 [5]: 5.44
pIC50 (PC-9): 5.70

CC[C@@H]1C(=O)N(C)c2cnc(Nc3ccc(C(=O)NC4CCN(C)CC4)cc3OC)nc2N1C1CCCC1 [BI-2536]
AUC(0-t) [6]: 0.089 µg·h/mL
MRT last [7]: 42 min
Tmax [8]: 4.98 min
AUC(0-inf) [9]: 0.117 µg·h/mL
CLint scaled [10]: 7.56 L/h/kg
half-life [11]: 41.4 min
microsomal CLint [12]: 34.5 µL/min/mg
bioavailability [13]: 8.2%
Cmax [14]: 0.175 µg/mL
CLint scaled [15]: 1.82 L/h/kg
microsomal CLint [16]: 50.6 µL/min/mg
CLint scaled [17]: 8.16 L/h/kg
microsomal CLint [18]: 24.1 µL/min/mg
AUC(0-t) [19]: 0.116 µg·h/mL
Cmax [20]: 0.04 µg/mL
MRT last [21]: 126 min
Vd [22]: 6 L/kg
half-life [23]: 40.2 min
half-life [24]: 57.4 min
clearance [25]: 8.58 L/h/kg
half-life [26]: 27.4 min
AUC(0-inf) [27]: 0.096 µg·h/mL
Tmax [28]: 25.2 min
half-life [29]: 84 min
C0 [30]: 0.227 µg/mL

CC[C@@H]1C(=O)N(C)c2cnc(Nc3cc(N4CCN(C)CC4)cc(F)c3OCCCO)nc2N1C1CCCC1
pIC50 (K562): 5.75
pIC50 [1]: 7.96
pIC50 (NCI-H460): 7.57
pIC50 [2]: 5.10
ratio [3]: 700
pIC50 (SW-620): 7.74
pIC50 (A549): 6.99
ratio [4]: 178
pIC50 (HL-60): 7.51
pIC50 (CCRF-CEM): 7.05
pIC50 (KG-1): 5.32
pIC50 [5]: 5.70
pIC50 (PC-9): 7.19

From ChEMBL document CHEMBL6153147 (J Med Chem, 2025)
